Patent US11618770B2, “MUC1-derived peptide, and pharmaceutical composition for treatment or prevention of cancer, immunity-inducing agent and method for manufacturing antigen presenting cell using same” (NEC CORPORATION, priority 2015, dated 2023)
Ends that are not written are not given here.

Assays:
HLA-A*02:01 molecule = molecular target: T1, HLA-A*02:01 molecule (Homo sapiens, UniProt P04439, D140Y/D185E/D98H/E176V/E277Q/G131W/G231S/I119V/I121R/I166T/I218V/L300P/L318F/N151K/N90K/P208A/P217A/Q86G/Q94H/R138H/R169H/T345S); assay: Experiment of binding peptide to HLA-A*02:01 molecule (T2 cells, antibody BB7.2, flow cytometer); conditions: for Kd: given as negative numbers (log of Kd value), T2 cells, 37° C. 4 hours
T1 construct: a cell line T2 (purchased from ATCC) expressing the HLA-A*02:01 molecule; host or cells: T2 cells
Experimental: Experiment of Binding Peptide to HLA-A*02:01 Molecule
The ability of each of the peptides to bind to an HLA-A*02:01 molecule, which is an HLA-A*02:01 gene product, was measured using a cell line T2 (purchased from ATCC) expressing the HLA-A*02:01 molecule.
The T2 cells and purified β2m were added to a series of serial dilutions of the peptide whose binding ability would be measured, and then incubation was carried out at 37° C. for 4 hours. The HLA-A*02:01 molecule that had increased in an expression amount in a peptide-concentration-dependent manner up to this point was stained using a fluorescently labeled monoclonal antibody BB7.2, which is specific to an association type.
(§1) Thereafter, the amount of fluorescence per cell was measured using a flow cytometer, and a dissociation constant Kd value was calculated using a method that was reported in a paper (Udaka et al., Immunogenetics, 51, 816-828, 2000) by the inventors of the present invention.

HLA-A*02:06 molecule = molecular target: T2, HLA-A*02:06 molecule (Homo sapiens, UniProt P04439, D140Y/D185E/D98H/E176V/E277Q/F33Y/G131W/G231S/I119V/I121R/I166T/I218V/L300P/L318F/N151K/N90K/P208A/P217A/Q86G/Q94H/R138H/R169H/T345S); assay: Experiment of binding peptide to HLA-A*02:06 molecule (RA2.6 cells, antibody BB7.2, flow cytometer); conditions: for Kd: given as negative numbers (log of Kd value), RA2.6 cells
T2 construct: expressed in transfected cells; host or cells: RA2.6 cells (mouse TAP-deficient RMAS cells carrying HLA-A*02:06 cDNA)
Experimental: Experiment of Binding Peptide to HLA-A*02:06 Molecule
The ability of each of the peptides to bind to an HLA-A*02:06 molecule, which is an HLA-A*02:06 gene product, was measured using RA2.6 cells (cell line that had been newly produced in Kochi University) produced by introducing the cDNA of the HLA-A*02:06 gene into a mouse TAP (transporter associated with antigen processing)-deficient cell line RMAS.
First, RA2.6 cells were cultured at 26° C. overnight.
Thereafter, the cells were cultured at 35° C. for 4 hours. […] A fluorescently labeled monoclonal antibody BB7.2, which specifically recognizes a peptide-binding HLA-A*02:06 molecule, was added thereto, incubation was carried out on ice for 20 minutes, and thus the cells were stained.
as §1

CD8T cells = assay: Peptide immunity induction testing (peptide-stimulated dendritic cells cocultured with CD8T cells, IFN-γ ELISA); type: cell-based, human
Experimental: Peptide Immunity Induction Testing
Of the peripheral blood monocytes obtained through pheresis from a patient (0) that had undergone a dendritic cell/CTL therapy against MUC1, a cell fraction that adhered to a culture flask was cultured in an AIM-CM culture medium (manufactured by Gibco) at 37° C. for 10 days. During the culture, 15 μl of IL-4 and 30 μl of a granulocyte monocyte colony-stimulating factor (GM-CSF) added to the culture medium on Day 0 and Day 3, and 15 μl of IL-4, 30 μl of GM-CSF, and 75 μl of a tumor necrosis factor (TFN)-α were added thereto on Day 5.
Induced dendritic cells were collected in a new AIM-CM culture medium, and the peptide of the present invention (Sequence ID Nos. 1 to 12) was added thereto to a concentration of 20 μg/ml. […]
CD8T cells were isolated from the culture medium using a CD8 negative selection kit (manufactured by Miltenyi), and the number of cells was counted. […]
The culture supernatant of the coculture of the T cells and the dendritic cells pulsed with the above-mentioned peptides on Day 7 was diluted to four steps, that is, ×1, ×5, ×25, and ×125, and the dilution step within a measurement limit was identified using Human IFN-γ ELISA MAX Deluxe Set (manufactured by BioLegend). Thereafter, at the identified dilution step, each sample was measured three times. […]

HLA-A*24:02 molecule = HLA-A*24:02 molecule (Homo sapiens, UniProt P04439, D101N/D140Y/D185E/E176V/E190D/F33S/G103R/G107R/I119L/I121M/I306V/K335N/L105A/L180Q/L300P/N151K/N90K/Q86E/Q94H/R106L/R138H/R89G/T104I/T345S/V100E/W191G/Y123F); assay: Experiment of binding peptide to HLA-A*24:02 molecule (C1R-A24 cells, antibody 17A12, FACS); conditions: for Kd: given as negative numbers (log of Kd value), C1R-A24 cells, on ice 4 hours
Experimental: Experiment of Binding Peptide to HLA-A*24:02 Molecule
The ability of each of the peptides to bind to an HLA-A*24:02 molecule, which is an HLA-A*24:02 gene product, was measured using C1R-A24 cells expressing the HLA-A*24:02 molecule (cells prepared by Professor Masafumi TAKIGUCHI, Kumamoto University being supplied with permission by Assistant Professor Masaki YASUKAWA, Ehime University).
First, C1R-A24 cells were exposed to acidic conditions at a pH of 3.3 for 30 seconds, and thus an endogenous peptide that originally binds to the HLA-A*24:02 molecule, and a light chain β2m, which is associated with HLA class-I molecules in common, were dissociated and removed. After neutralization, a purified β2m was added to C1R-A24 cells, and the obtained product was added to a series of dilutions of the peptide and incubated on ice for 4 hours. Staining was carried out using a fluorescently labeled monoclonal antibody 17A12, which recognizes association (MHC-pep) of the three members, that is, a HLA-A*24:02 molecule, a peptide, and β2m, which had reassociated during the incubation.
Thereafter, the MHC-pep count per C1R-A24 cell (proportional to the intensity of fluorescence of the above-mentioned fluorescent antibody) was quantitatively measured using a fluorescence-activated cell sorter FACScan (Becton-Dickinson). A binding-dissociation constant Kd value between the HLA-A*24:02 molecule and the peptide was calculated from the average intensity of fluorescence per cell using a method that was reported in a paper (Udaka et al., Immunogenetics, 51, 816-828, 2000) by the inventors of the present invention.

Sequence | Binding to HLA-A*02:01 molecule (in words) (HLA-A*02:01 molecule) | Kd (HLA-A*02:01 molecule) | Binding to HLA-A*02:06 molecule (in words) (HLA-A*02:06 molecule) | Kd (HLA-A*02:06 molecule) | Binding to HLA-A*24:02 molecule (in words) (HLA-A*24:02 molecule) | Kd (HLA-A*24:02 molecule) | Immunogenicity (in words) (CD8T cells)
SFFFLSFHI [Seq. ID No. 8, SFFFLSFHI] |  | > 100 µM |  | 105 µM |  | 0.0861 µM | 
HHSDTPTTL [Seq. ID No. 7, HHSDTPTTL] |  | > 1000 µM |  | > 1000 µM |  | 1.36 µM | 
TLAFREGTI [Seq. ID No. 9, TLAFREGTI] |  | > 1000 µM |  | 820 µM |  | 1.06 µM | 
LQRDISEMF [Seq. ID No. 6, LQRDISEMF] |  | > 1000 µM |  | 54.9 µM |  | 0.226 µM | 
AFREGTINV [Seq. ID No. 4, AFREGTINV] |  | > 1000 µM |  | > 1000 µM |  | 1.47 µM | 

Further lines, with some results ahead:

Binding to HLA-A*02:01 molecule (in words) (HLA-A*02:01 molecule) | Kd (HLA-A*02:01 molecule) | Binding to HLA-A*02:06 molecule (in words) (HLA-A*02:06 molecule) | Kd (HLA-A*02:06 molecule) | Binding to HLA-A*24:02 molecule (in words) (HLA-A*24:02 molecule) | Kd (HLA-A*24:02 molecule) | Sequence | Immunogenicity (in words) (CD8T cells)
strongly binds | 7.55 µM | strongly binds | 6.19 µM | strongly binds | 6.74 µM | STGVSFFFL [Seq. ID No. 10, STGVSFFFL] | high immunogenicity
 | 28.3 µM |  | 1.73 µM |  | 1.18 µM | GVPGWGIAL [Seq. ID No. 3, GVPGWGIAL] | 
 | 4.07 µM |  | 41.1 µM |  | 0.0845 µM | FLGLSNIKF [Seq. ID No. 1, FLGLSNIKF] | 
 | 0.366 µM |  | 0.448 µM |  | > 1000 µM | GQDVTSVPV [Seq. ID No. 11, GQDVTSVPV] | 
 | 18.2 µM |  | 2.18 µM |  | > 1000 µM | FSAQSGAGV [Seq. ID No. 12, FSAQSGAGV] | 
 | 15.4 µM |  | 150 µM |  | 0.711 µM | AASRYNLTI [Seq. ID No. 5, AASRYNLTI] | 
 | 125 µM |  | 2.36 µM |  | 0.0573 µM | SVPVTRPAL [Seq. ID No. 2, SVPVTRPAL] | 
